Tests used:
T47D = test: Growth inhibition of human T47D cells at 10 uM incubated for 48 hrs by sulforhodamine B assay relative to control; format: functional; conditions: values are per cent of control
KM12 = test: Growth of human KM12 cells at 10 uM incubated for 48 hrs by sulforhodamine B assay relative to control; conditions: KM12, 48 h
NCI-H226 = test: Growth inhibition of human NCI-H226 cells at 10 uM incubated for 48 hrs by sulforhodamine B assay relative to control; format: functional; conditions: NCI-H226, 48 h, values are per cent of control
SNB-75 = test: Growth of human SNB75 cells at 10 uM incubated for 48 hrs by sulforhodamine B assay relative to control; conditions: SNB-75, 48 h
SK-MEL-2 = test: Growth of human SK-MEL-2 cells at 10 uM incubated for 48 hrs by sulforhodamine B assay relative to control; conditions: SK-MEL-2, 48 h
NCI-H322M = test: Growth inhibition of human NCI-H322M cells at 10 uM incubated for 48 hrs by sulforhodamine B assay relative to control; format: functional; conditions: values are per cent of control
Malme-3M = test: Growth of human MALME-3M cells at 10 uM incubated for 48 hrs by sulforhodamine B assay relative to control
786-0 = test: Growth inhibition of human 786-0 cells at 10 uM incubated for 48 hrs by sulforhodamine B assay relative to control; format: functional; conditions: 786-0, 48 h, values are per cent of control
EKVX = test: Growth of human EKVX cells at 10 uM incubated for 48 hrs by sulforhodamine B assay relative to control
SK-OV-3 = test: Growth inhibition of human SKOV3 cells at 10 uM incubated for 48 hrs by sulforhodamine B assay relative to control; format: functional; conditions: SK-OV-3, 48 h, values are per cent of control
NCI/ADR-RES = test: Growth inhibition of human NCI/ADR-RES cells at 10 uM incubated for 48 hrs by sulforhodamine B assay relative to control; format: functional; conditions: values are per cent of control
HCC 2998 = test: Growth of human HCC2998 cells at 10 uM incubated for 48 hrs by sulforhodamine B assay relative to control; conditions: HCC 2998, 48 h
SF-539 = test: Growth of human SF539 cells at 10 uM incubated for 48 hrs by sulforhodamine B assay relative to control; conditions: SF-539, 48 h
HL-60(TB) = test: Growth inhibition of human HL-60(TB) cells at 10 uM incubated for 48 hrs by sulforhodamine B assay relative to control; format: functional; conditions: HL-60, 48 h, values are per cent of control
Hs-578T = test: Growth inhibition of human Hs 578T cells at 10 uM incubated for 48 hrs by sulforhodamine B assay relative to control; format: functional; conditions: values are per cent of control
A498 = test: Growth inhibition of human A498 cells at 10 uM incubated for 48 hrs by sulforhodamine B assay relative to control; format: functional; conditions: A498, 48 h, values are per cent of control
MCF7 = test: Growth inhibition of human MCF7 cells at 10 uM incubated for 48 hrs by sulforhodamine B assay relative to control; format: functional; conditions: MCF7, 48 h, values are per cent of control
HCT-116 = test: Growth of human HCT116 cells at 10 uM incubated for 48 hrs by sulforhodamine B assay relative to control; conditions: HCT-116, 48 h
RPMI-8226 = test: Growth of human RPMI8226 cells at 10 uM incubated for 48 hrs by sulforhodamine B assay relative to control; conditions: RPMI-8226, 48 h
CCRF-CEM = test: Growth of human CCRF-CEM cells at 10 uM incubated for 48 hrs by sulforhodamine B assay relative to control
UACC-62 = test: Growth of human UACC62 cells at 10 uM incubated for 48 hrs by sulforhodamine B assay relative to control; conditions: UACC-62, 48 h
CAKI-1 = test: Growth inhibition of human Caki1 cells at 10 uM incubated for 48 hrs by sulforhodamine B assay relative to control; format: functional; conditions: CAKI-1, 48 h, values are per cent of control
NCI-H460 = test: Growth inhibition of human NCI-H460 cells at 10 uM incubated for 48 hrs by sulforhodamine B assay relative to control; format: functional; conditions: NCI-H460, 48 h, values are per cent of control
RXF 393 = test: Growth inhibition of human RXF393 cells at 10 uM incubated for 48 hrs by sulforhodamine B assay relative to control; format: functional; conditions: RXF 393, 48 h, values are per cent of control
OVCAR-4 = test: Growth of human OVCAR4 cells at 10 uM incubated for 48 hrs by sulforhodamine B assay relative to control; conditions: OVCAR-4, 48 h
LOX IMVI = test: Growth of human LOXIMVI cells at 10 uM incubated for 48 hrs by sulforhodamine B assay relative to control
SK-MEL-5 = test: Growth of human SK-MEL-5 cells at 10 uM incubated for 48 hrs by sulforhodamine B assay relative to control; conditions: SK-MEL-5, 48 h
UACC-257 = test: Growth of human UACC257 cells at 10 uM incubated for 48 hrs by sulforhodamine B assay relative to control; conditions: UACC-257, 48 h
HOP-62 = test: Growth of human HOP62 cells at 10 uM incubated for 48 hrs by sulforhodamine B assay relative to control; conditions: HOP-62, 48 h
PC-3 = test: Growth inhibition of human PC3 cells at 10 uM incubated for 48 hrs by sulforhodamine B assay relative to control; format: functional; conditions: PC-3, 48 h, values are per cent of control
OVCAR-8 = test: Growth of human OVCAR8 cells at 10 uM incubated for 48 hrs by sulforhodamine B assay relative to control; conditions: OVCAR-8, 48 h
MDA-MB-435 = test: Growth of human MDA-MB-435 cells at 10 uM incubated for 48 hrs by sulforhodamine B assay relative to control; conditions: MDA-MB-435, 48 h
U-251 = test: Growth of human U251 cells at 10 uM incubated for 48 hrs by sulforhodamine B assay relative to control; conditions: U-251, 48 h
SNB-19 = test: Growth of human SNB19 cells at 10 uM incubated for 48 hrs by sulforhodamine B assay relative to control; conditions: SNB-19, 48 h

| SMILES | growth, % of control at 10 µM (T47D) | growth, % of control at 10 µM (KM12) | growth, % of control at 10 µM (NCI-H226) | growth, % of control at 10 µM (SNB-75) | growth, % of control at 10 µM (SK-MEL-2) | growth, % of control at 10 µM (NCI-H322M) | growth, % of control at 10 µM (Malme-3M) | growth, % of control at 10 µM (786-0) | growth, % of control at 10 µM (EKVX) | growth, % of control at 10 µM (SK-OV-3) | growth, % of control at 10 µM (NCI/ADR-RES) | growth, % of control at 10 µM (HCC 2998) | growth, % of control at 10 µM (SF-539) | growth, % of control at 10 µM (HL-60(TB)) | growth, % of control at 10 µM (Hs-578T) | growth, % of control at 10 µM (A498) | growth, % of control at 10 µM (MCF7) | growth, % of control at 10 µM (HCT-116) | growth, % of control at 10 µM (RPMI-8226) | growth, % of control at 10 µM (CCRF-CEM) | also measured |
| --- | --- | --- | --- | --- | --- | --- | --- | --- | --- | --- | --- | --- | --- | --- | --- | --- | --- | --- | --- | --- | --- |
| CC(C)(C)S/C(Nc1ccccc1)=C(\C#N)C(=O)N/N=C\c1ccc(Cl)cc1Cl | 78.4% | 102% | 92.6% | 102% | 91.6% | 99.8% | 94.2% | 97.8% | 101% | 101% | 96% | 98.6% | 98% | 89.2% | 90.1% | 101% | 92.7% | 88% | 98.7% | 88.3% | growth, % of control at 10 µM (UACC-62): 89.9%; growth, % of control at 10 µM (CAKI-1): 98.4%; growth, % of control at 10 µM (NCI-H460): 101%; growth, % of control at 10 µM (RXF 393): 103%; growth, % of control at 10 µM (OVCAR-4): 112%; growth, % of control at 10 µM (LOX IMVI): 101%; growth, % of control at 10 µM (SK-MEL-5): 98.7%; growth, % of control at 10 µM (UACC-257): 92.5%; growth, % of control at 10 µM (HOP-62): 98.1%; growth, % of control at 10 µM (PC-3): 96.3%; growth, % of control at 10 µM (OVCAR-8): 97.3%; growth, % of control at 10 µM (MDA-MB-435): 104%; growth, % of control at 10 µM (U-251): 98.6%; growth, % of control at 10 µM (SNB-19): 97.5% |
| CCS/C(Nc1ccccc1)=C(\C#N)C(=O)Nc1ccccc1 | 70.1% | 90% | 92.9% | 102% | 87.6% | 97.2% | 117% | 88.5% | 100% | 88.2% | 91.1% | 96.1% | 104% | 58.1% | 96.9% | 76.2% | 98.6% | 92.7% | 79.2% | 82.4% | growth, % of control at 10 µM (UACC-62): 79.8%; growth, % of control at 10 µM (CAKI-1): 87.5%; growth, % of control at 10 µM (NCI-H460): 99.5%; growth, % of control at 10 µM (RXF 393): 101%; growth, % of control at 10 µM (OVCAR-4): 102%; growth, % of control at 10 µM (LOX IMVI): 97.9%; growth, % of control at 10 µM (SK-MEL-5): 93.5%; growth, % of control at 10 µM (UACC-257): 103%; growth, % of control at 10 µM (HOP-62): 93.1%; growth, % of control at 10 µM (PC-3): 92.4%; growth, % of control at 10 µM (OVCAR-8): 94.2%; growth, % of control at 10 µM (MDA-MB-435): 110%; growth, % of control at 10 µM (U-251): 92.6%; growth, % of control at 10 µM (SNB-19): 91.2% |
| CCS/C(Nc1ccccc1)=C(\C#N)C(=O)Nc1ccc(C)cc1 | 72.1% | 96.6% | 95% | 109% | 85.3% | 96.6% | 101% | 87.1% | 97.4% | 101% | 98.4% | 94.8% | 98.2% | 45.9% | 98.9% | 79.4% | 92.3% | 90% | 86% | 85.8% | growth, % of control at 10 µM (UACC-62): 80.3%; growth, % of control at 10 µM (CAKI-1): 86.8%; growth, % of control at 10 µM (NCI-H460): 98.8%; growth, % of control at 10 µM (RXF 393): 103%; growth, % of control at 10 µM (OVCAR-4): 101%; growth, % of control at 10 µM (LOX IMVI): 98.8%; growth, % of control at 10 µM (SK-MEL-5): 93.6%; growth, % of control at 10 µM (UACC-257): 99.3%; growth, % of control at 10 µM (HOP-62): 103%; growth, % of control at 10 µM (PC-3): 97%; growth, % of control at 10 µM (OVCAR-8): 96%; growth, % of control at 10 µM (MDA-MB-435): 102%; growth, % of control at 10 µM (U-251): 96.6%; growth, % of control at 10 µM (SNB-19): 93.3% |
| CCS/C(Nc1ccccc1)=C(\C#N)C(=O)N/N=C\c1ccc(Cl)cc1Cl | 17.8% | 28% | 37.7% | -6.89% | 28.3% | 70.9% | 38.1% | 31.8% | 47.4% | 15.5% | 10.8% | 48.4% | 4.25% | -31.4% | -6.44% | -2.1% | 19.3% | 17.5% | 9.68% | 9.86% | growth, % of control at 10 µM (UACC-62): 26.6%; growth, % of control at 10 µM (CAKI-1): 31.5%; growth, % of control at 10 µM (NCI-H460): 8.05%; growth, % of control at 10 µM (RXF 393): 2.63%; growth, % of control at 10 µM (OVCAR-4): 56.5%; growth, % of control at 10 µM (LOX IMVI): 34.4%; growth, % of control at 10 µM (SK-MEL-5): 12.4%; growth, % of control at 10 µM (UACC-257): 51.9%; growth, % of control at 10 µM (HOP-62): 36.7%; growth, % of control at 10 µM (PC-3): 31.5%; growth, % of control at 10 µM (OVCAR-8): 28.6%; growth, % of control at 10 µM (MDA-MB-435): -34.5%; growth, % of control at 10 µM (U-251): 19.1%; growth, % of control at 10 µM (SNB-19): 19.6% |

— ChEMBL document CHEMBL4145553, “Design, synthesis, and biological evaluation of novel amide and hydrazide based thioether analogs targeting Histone deacteylase (HDAC) enzymes” (Eur J Med Chem, 2018)
